Results published in the NIST ThermoML archive (doi:10.1021/je5002686).
“And” between values parts separate entries of the source, which are not always exact repeats. Identical values can stand only once.

Conditions: Liquid, Vibrating tube method

CCOC(F)(C(F)(F)C(F)(F)C(F)(F)F)C(F)(C(F)(F)F)C(F)(F)F (centres undefined) [2-trifluoromethyl-3-ethoxydodecafluorohexane]
mass density
Conditions | 270 K | 290 K | 310 K | 330 K | 350 K
490 kPa | 1678.1 kg/m3 | 1637.9 kg/m3 | 1597.2 kg/m3 | 1555.1 kg/m3 | –
500 kPa | 1678.3 kg/m3 | 1638.1 kg/m3 and 1638.2 kg/m3 | 1597.2 kg/m3 and 1597.5 kg/m3 | 1555.2 kg/m3 and 1555 kg/m3 | 1511.4 kg/m3 and 1511.5 kg/m3
510 kPa | – | – | – | – | 1511.6 kg/m3
990 kPa | 1679.2 kg/m3 and 1679.3 kg/m3 | 1639.4 kg/m3 and 1639.5 kg/m3 | 1598.7 kg/m3 | – | 1513.6 kg/m3
1000 kPa | 1679.2 kg/m3 | 1639.2 kg/m3 | 1598.7 kg/m3 and 1599 kg/m3 | 1556.9 kg/m3 and 1556.7 kg/m3 | 1513.7 kg/m3 and 1513.5 kg/m3
1990 kPa | 1681.3 kg/m3 | 1641.9 kg/m3 | – | 1560.4 kg/m3 | 1517.8 kg/m3
2000 kPa | 1681.5 kg/m3 | 1641.7 kg/m3 and 1642 kg/m3 | 1601.6 kg/m3 and 1601.9 kg/m3 | 1560.2 kg/m3 and 1560.3 kg/m3 | 1517.6 kg/m3 and 1517.8 kg/m3
2990 kPa | – | 1644.4 kg/m3 | 1604.8 kg/m3 | 1563.6 kg/m3 | 1521.8 kg/m3
3000 kPa | 1683.4 kg/m3 | 1644.3 kg/m3 and 1644.1 kg/m3 | 1604.5 kg/m3 and 1604.4 kg/m3 | 1563.8 kg/m3 and 1563.7 kg/m3 | 1521.9 kg/m3 and 1521.7 kg/m3
3010 kPa | 1683.6 kg/m3 | – | – | – | –
3990 kPa | 1685.5 kg/m3 | 1646.7 kg/m3 and 1646.5 kg/m3 | 1607.3 kg/m3 | 1567 kg/m3 | –
4000 kPa | 1685.6 kg/m3 | 1646.8 kg/m3 | 1607.2 kg/m3 and 1607.6 kg/m3 | 1567.1 kg/m3 and 1566.9 kg/m3 | 1525.8 kg/m3 and 1525.6 kg/m3 and 1525.7 kg/m3
4990 kPa | 1687.5 kg/m3 | 1649.1 kg/m3 | 1609.9 kg/m3 | 1570.2 kg/m3 | 1529.4 kg/m3
5000 kPa | 1687.7 kg/m3 and 1687.5 kg/m3 | 1648.9 kg/m3 and 1649.2 kg/m3 | 1610 kg/m3 | 1570.3 kg/m3 and 1570.1 kg/m3 | 1529.6 kg/m3 and 1529.5 kg/m3
5010 kPa | – | – | 1610.3 kg/m3 | – | –
9990 kPa | 1697.3 kg/m3 | 1660.3 kg/m3 and 1660.1 kg/m3 and 1660.4 kg/m3 | – | 1585.3 kg/m3 | 1547.1 kg/m3
10000 kPa | 1697.3 kg/m3 and 1697.4 kg/m3 | – | 1622.9 kg/m3 and 1623.3 kg/m3 and 1623 kg/m3 | 1585.1 kg/m3 and 1585.2 kg/m3 | 1546.9 kg/m3 and 1547 kg/m3
14990 kPa | 1706.5 kg/m3 | – | – | – | –
15000 kPa | 1706.5 kg/m3 and 1706.6 kg/m3 | 1670.8 kg/m3 and 1670.6 kg/m3 | 1634.8 kg/m3 and 1635.2 kg/m3 and 1634.9 kg/m3 | 1598.9 kg/m3 and 1598.7 kg/m3 and 1598.8 kg/m3 | 1562.7 kg/m3 and 1562.5 kg/m3 and 1562.6 kg/m3
19990 kPa | – | 1680.5 kg/m3 and 1680.3 kg/m3 | 1645.8 kg/m3 and 1645.9 kg/m3 | 1611.3 kg/m3 and 1611.2 kg/m3 | 1576.5 kg/m3 and 1576.6 kg/m3
20000 kPa | 1715.1 kg/m3 and 1715.2 kg/m3 | 1680.6 kg/m3 | 1646.2 kg/m3 | 1611.2 kg/m3 | 1576.8 kg/m3
24990 kPa | 1723.4 kg/m3 | – | – | – | 1589.6 kg/m3 and 1589.4 kg/m3 and 1589.5 kg/m3
25000 kPa | 1723.3 kg/m3 and 1723.5 kg/m3 | 1689.7 kg/m3 and 1689.5 kg/m3 | 1656.1 kg/m3 | 1622.9 kg/m3 and 1622.6 kg/m3 and 1622.7 kg/m3 | –
25010 kPa | – | – | 1656.5 kg/m3 and 1656.2 kg/m3 | – | –
29990 kPa | 1731.3 kg/m3 | – | 1665.8 kg/m3 | 1633.5 kg/m3 | 1601.3 kg/m3
30000 kPa | 1731.1 kg/m3 and 1731.2 kg/m3 | 1698.4 kg/m3 | 1666.2 kg/m3 | 1633.4 kg/m3 and 1633.5 kg/m3 | 1601.5 kg/m3 and 1601.4 kg/m3
30010 kPa | – | 1698.3 kg/m3 | 1665.7 kg/m3 | – | –
34990 kPa | 1738.7 kg/m3 | 1706.7 kg/m3 | 1674.8 kg/m3 | 1643.6 kg/m3 and 1643.5 kg/m3 | 1612.3 kg/m3 and 1612.4 kg/m3
35000 kPa | 1738.6 kg/m3 and 1738.7 kg/m3 | 1706.5 kg/m3 | 1674.9 kg/m3 | 1643.4 kg/m3 | 1612.6 kg/m3
35010 kPa | – | 1706.7 kg/m3 | 1675.3 kg/m3 | – | –
40000 kPa | 1745.7 kg/m3 and 1745.8 kg/m3 and 1745.9 kg/m3 | 1714.6 kg/m3 and 1714.4 kg/m3 and 1714.5 kg/m3 | 1683.5 kg/m3 and 1683.9 kg/m3 and 1683.6 kg/m3 | 1653.1 kg/m3 and 1652.8 kg/m3 and 1652.9 kg/m3 | –
44990 kPa | 1752.7 kg/m3 | 1722.1 kg/m3 | – | 1661.8 kg/m3 and 1661.9 kg/m3 | –
45000 kPa | 1752.6 kg/m3 | 1721.9 kg/m3 and 1722.1 kg/m3 | 1691.7 kg/m3 and 1692.2 kg/m3 and 1691.8 kg/m3 | 1662 kg/m3 | –
49930 kPa | – | 1729.2 kg/m3 | – | – | –
49940 kPa | – | 1729.1 kg/m3 | – | – | –
49950 kPa | – | 1729 kg/m3 | – | – | –
49960 kPa | 1759.2 kg/m3 | – | – | – | –
49970 kPa | 1759.2 kg/m3 | – | 1699.6 kg/m3 | – | –
49980 kPa | – | – | – | 1670.4 kg/m3 | –
49990 kPa | – | – | – | 1670.3 kg/m3 | –
50000 kPa | 1759.4 kg/m3 | – | – | – | –
50010 kPa | – | – | 1699.6 kg/m3 | 1670.6 kg/m3 | –
50050 kPa | – | – | 1700.1 kg/m3 | – | –
